According to PMC10688702, “The indole motif is essential for the antitrypanosomal activity of N^5-substituted paullones” (PLOS ONE, 2023):

Columns and labels:
[1] = biological target: trypanothione synthetase of L. infantum (LiTryS) (Leishmania infantum, UniProt A4I2Z3); test: TryS activity screening assay on recombinant LiTryS; format: biochemical; details: for activity at 30 µM: read-out: LiTryS activity [% at 30 μM]; for IC50: recombinant TryS, errors 2 SD, read-out: LiTryS inhibition [IC50
Procedure, shortened: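 N-His-tagged TryS from E. coli, purified by IMAC and SEC; end-point reaction with 150 μM ATP, 2 mM Spd, GSH 0.05 mM (TbTryS) or 0.25 mM (LiTryS), enzyme 3*10^−5 (TbTryS) or 2*10^−5 (LiTryS) μmol*min^-1*mL^-1. Stopped after 15 min with BIOMOL GREEN; A650 activity relative to blank-corrected DMSO control.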

[2] = tested on: bloodstream form of T. b. brucei strain 427; test: Viability assay for T. b. brucei (whole parasite, bioluminescence); format: cell-based; details: 24 h; for T. b. brucei (BS) proliferation [% at 10 μM]: 10 μM compound; for EC50: Trypanosoma brucei, read-out: T. b. brucei (BS) [EC50
Method: Viability assay for T. b. brucei. The bloodstream form of the monomorphic T. b. brucei strain 427, cell line 5141313, constitutively and stably expressing an ectopic copy of the Photinus pyralis red-shifted luciferase, was cultured in vitro with HMI-9 medium, supplemented with 10% fetal bovine serum, 10 U/mL penicillin (Gibco), 10 μg/mL streptomycin (Gibco), 0.2 μg/mL bleomycin (Jena Bioscience), 4 μg/mL G418 disulfate salt (Sigma-Aldrich) and 0.2 μg/mL puromycin (Invitrogen), inside a humidified incubator (Thermo Fisher Scientific) with controlled temperature (37°C) and CO2 (5%) in a 25 or 75 cm^2 vented-cap culture-flask. The anti-trypanosomal activity of compounds was evaluated in a 96-well culture plate containing 2.2 μL/well DMSO (negative control) or compounds dissolved in DMSO (1% final concentration), and 220 μL/well of a suspension of 1 × 10^5 parasites/mL. The plates were incubated at 37°C and 5% CO2 for 24 h. Next, each well was transferred to a 96-well black plate, and 20 μL of a solution containing d-luciferin (1.5 mg/mL in PBS glucose 1% w/v) and Triton X-100 (0.05% v/v) was added. Bioluminescence signal was measured in a LUMIstar OPTIMA Microplate luminometer using the following settings: 10 s shaking, 5 s/well acquisition, 0.2 s measurement delay, maximum gain, and 37°C. For the bioluminescence assay, parasite viability was calculated according to the following formula: parasiteviability%=BLcpd-BLblank/BLneg-BLblank*100%
BL refers to the mean of bioluminescence signal corresponding to the tested compound (cpd), the blank (blank, complete media containing 1% v/v DMSO), or the negative control (neg, parasites treated with 1% v/v DMSO). EC50 values were determined from concentration-response curves fitted to a four-parameter sigmoid equation using the GraphPad Prism software (version 6.0). All errors are expressed as one SD, estimated as σ^n-1. For a detailed explanation of the protocol, see Dibello et al..

[3] = tested on: L. infantum amastigotes (intracellular, in J774.A1 macrophages); test: Viability assay for L. infantum amastigotes; format: cell-based; details: Leishmania infantum, J774.A1, 24 h, read-out: L. infantum amastigote viability [% at 20 μM]
Procedure, shortened: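 Luciferase-expressing L. infantum metacyclic promastigotes (MHOM/MA/67/ITMAP263) infected J774.A1 murine macrophages at 1:10 for 24 h at 37 °C, 5% CO2. After compound treatment, a further 24 h incubation followed. Percent amastigote viability, in triplicate, was normalised to host-cell density by a propidium iodide correction factor.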

Chain of trypanothione synthetase of L. infantum (LiTryS) (A4I2Z3 entry or part of it): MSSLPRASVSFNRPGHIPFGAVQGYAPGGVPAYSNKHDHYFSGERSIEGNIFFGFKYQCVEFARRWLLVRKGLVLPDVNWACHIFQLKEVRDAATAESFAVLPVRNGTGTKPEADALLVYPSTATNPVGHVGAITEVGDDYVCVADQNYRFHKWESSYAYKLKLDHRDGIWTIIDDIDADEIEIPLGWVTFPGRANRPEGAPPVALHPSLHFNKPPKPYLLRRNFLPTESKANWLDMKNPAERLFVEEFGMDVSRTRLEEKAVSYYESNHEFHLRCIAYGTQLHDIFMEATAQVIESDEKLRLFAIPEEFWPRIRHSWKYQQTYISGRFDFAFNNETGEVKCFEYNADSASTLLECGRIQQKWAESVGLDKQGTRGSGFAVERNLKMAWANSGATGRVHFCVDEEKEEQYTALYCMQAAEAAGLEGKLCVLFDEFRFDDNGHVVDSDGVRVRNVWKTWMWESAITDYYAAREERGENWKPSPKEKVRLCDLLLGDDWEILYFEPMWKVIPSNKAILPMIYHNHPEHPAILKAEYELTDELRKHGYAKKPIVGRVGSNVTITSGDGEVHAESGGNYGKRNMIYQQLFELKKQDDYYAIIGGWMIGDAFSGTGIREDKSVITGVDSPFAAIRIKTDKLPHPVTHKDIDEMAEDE

## CNCCNC(=O)CN1C(=O)Cc2c([nH]c3ccc(I)cc23)-c2ccc(Cl)cc21 [1f, 2-(3-Chloro-9-iodo-6-oxo-7,12-dihydrobenzo[2,3]azepino[4,5-b]indol-5(6H)-yl)-N-[2-(methylamino)ethyl]acetamide]
[1]
  activity at 30 µM: 2.2 ± 0.6%
  IC50: 70 ± 30 nM
[2]
  T. b. brucei (BS) proliferation [% at 10 μM]: 0.0 ± 1.7%
  EC50: 6.4 ± 1.7 µM
[3]
  viability at 20 µM: 72 ± 5%

## CNCCNC(=O)CN1C(=O)Cc2c([nH]c3ccc(Cl)cc23)-c2ccc(Cl)cc21 [1g, 2-(3,9-Dichloro-6-oxo-7,12-dihydrobenzo[2,3]azepino[4,5-b]indol-5(6H)-yl)-N-[2-(methylamino)ethyl]acetamide]
[1]
  activity at 30 µM: 2.2%
  IC50: 390 ± 60 nM
[2]
  T. b. brucei (BS) proliferation [% at 10 μM]: 0.0 ± 0.3%
  EC50: 4.7 ± 1.1 µM
[3]
  viability at 20 µM: 70 ± 2%

## CNCCNC(=O)CN1C(=O)Cc2c([nH]c3ccc(C(F)(F)F)cc23)-c2ccc(Cl)cc21 [1h, 2-(3-Chloro-6-oxo-9-trifluoromethyl-7,12-dihydrobenzo[2,3]azepino[4,5-b]indol-5(6H)-yl)-N-[2-(methylamino)ethyl]acetamide]
[1]
  activity at 30 µM: 0%
  IC50: 60 ± 40 nM
[2]
  T. b. brucei (BS) proliferation [% at 10 μM]: 0.9 ± 1.3%
  EC50: 6.6 ± 1.1 µM
[3]
  viability at 20 µM: 93 ± 10%
